Tests used:
[1] = tested on: human primary trabecular meshwork cells; assay: α-SMA expression in TGF-β2 treated TM cells; assay type: cell-based; details: TGFβ2 5 ng/mL 48 hr; remodilin 3 μM, PGE2 1 μM; vs DMSO
Experimental: FIG. 9 Anti-fibrogenic effects of remodilin 50 in human primary trabecular meshwork cells.
(§1) TM cells were cultured in 6-well plates and serum-deprived for one day before drug treatment. Cells were treated with prostaglandin E2 (PGE2, 1 μM), remodilin [3 μM] or vehicle control (dimethyl sulfoxide, DMSO) together with human recombinant TGF-β2 [5 ng/ml] for 48 hours. PGE2 was chosen as a positive control due to its known anti-fibrogenic effects. […] The effect of remodilin treatment alone on cellular contractile force in TM cells was examined. The effects of remodilin treatment using “force response ratio” which is a normalized average contractile force compared to baseline, was examined. Average contractile force was measured using Fourier-Transform Traction Microscopy. After 1 hr treatment, compared to DMSO, remodilins reduced average contractile force of TM cells in a dose dependent manner. […] Therefore, remodilins may change structural compositions and mechanical properties of TM and therefore, may help increase outflow facility in glaucomatous eyes with elevated TGF-β2 level.

[2] = tested on: human lung-derived fibroblasts; assay: TGFβ-induced myofibroblast transformation (ACTA2, FN1 protein expression); assay type: cell-based; details: 1 ng/mL TGFβ1; 0, 1, 3, or 10 μM remodilin for 2 d; dose-dependent
Experimental: FIG. 1 Remodilins inhibit myofibroblast transformation (MFT). Serum deprived human lung-derived fibroblasts were treated with 1 ng/mL TGFβ1 (or not, left lane) and 0, 1, 3, or 10 μM remodilin for 2 d. Four remodilins each inhibited smooth muscle α-actin (ACTA2) or fibronectin-1 (FN1) protein expression (markers of MFT).

[3] = tested on: Smad-dependent transcription; assay: TGFβ-stimulated Smad-dependent transcription (SBE-Luc reporter); assay type: cell-based; details: human lung fibroblasts; 10 μM
Experimental: (§2) FIG. 2 Signaling pathway targeted by remodilins. Schematic diagram (center) of signaling from TGFβ to (SRF); red proteins are some, but not all, potential targets. TGFβ stimulates Smad-dependent transcription in human lung fibroblasts that is unchanged by 10 μM remodilin 4 (left), but TGFβ-stimulated SRF-dependent transcription is inhibited by the remodilin (right). SBE—Smad binding element; Luc—luciferase; TK-RL—constitutively active thymidine kinase promoter-driven renilla luciferase (used to control for transfection efficiency).
(§3) In cultured human lung fibroblasts, remodilins act downstream of Smad signaling, which remains intact, though TGFβ-induced SRF activation is blocked (FIG. 2); SRF is necessary for expression of smooth muscle α-actin and other contractile proteins. Remodilins also suppress TGFβ-induced HIF1α expression in human lung fibroblasts and HIF1α-stimulated pathways in human airway myocytes.

[4] = tested on: SRF-dependent transcription; assay: TGFβ-stimulated SRF-dependent transcription (luciferase reporter); assay type: cell-based; details: human lung fibroblasts; 10 μM
Experimental: as §2, §3

[5] = tested on: MDA-MB-231 cells; assay: Spheroid invasion into collagen gels; assay type: cell-based, human; details: 10 µM remodilin; 48 hrs; collagen 2 mg/mL; DMEM 0.5% FBS; vs 0.1% DMSO
Experimental: FIG. 3 MDA-MB-231 cells were grown into spheroids, then allowed to migrate into collagen gels in DMEM containing 0.5% FBS and remodilin (10 µM remodilin 39 [top row] or remodilin 83 [bottom row]) or diluent (0.1% DMSO) for 48 hrs (representative 48 hr images shown).
(§4) Remodilins 39 and 83 each slowed the invasion of triple negative MDA-MB-231 human breast cancer cells from spheroids into a surrounding collagen gel (FIG. 3), and also slowed the serum-directed invasion MDA-MB-231-derived BM1 cells through Matrigel-coated transwells (FIG. 4). Remodilins 39 and 83 also slowed the migration of MDA-MB-231 cells in a scratch wound healing assay (FIG. 5).

[6] = tested on: MDA-MB-231-derived BM1 cells; assay: 10% FBS-directed invasion through Matrigel-coated transwell membrane; assay type: cell-based, human; details: dose-dependent; n=3/condition
From the text: FIG. 4 Remodilins 39 and 83 inhibited 10% FBS-directed invasion migration of MDA-MB-231-derived BM1 cells through a Matrigel-coated transwell mem-brane, in a dose-dependent fashion. Mean+SEM shown; n=3/condition. **P<0.01; ***P<0.001; ****P<0.0001.
as §4

[7] = tested on: HIF1α; assay: Hypoxia-induced HIF1α accumulation in HEK293 cells; assay type: cell-based; details: 6 hrs steady hypoxia (1% oxygen); 3 μM or 10 µM
From the text: FIG. 12A-12B Remodilins inhibit accumulation of hypoxia-inducible factor-1 alpha (HIF1α) protein. FIG. 12A Effect of remodilin 83 on TGFβ-induced phosphorylation of AKT and ERK1/2 and TGFβ-induced HIF1α accumulation in human fibroblasts. FIG. 12B Both remodilins 39 and 83 inhibited HIF1α accumulation in HEK293 cells exposed to 6 hrs of hypoxia (1% 02).
The influence of remodilin 83 on HIF-1α accumulation in TGFβ-treated fibroblasts was examined. […] Similarly, both remodilins 39 and 83 inhibited HIF1α accumulation in HEK293 cells exposed to 6 hrs of hypoxia (1% O2; FIG. 12B). […] N—normoxia; H—hypoxia.

[8] = tested on: MDA-MB-231 cells; assay: Alamar blue assay (growth inhibition, cytotoxicity); assay type: cell-based, human; details: concentrations to at least 10 uM
[9] = In vivo PK and oral bioavailability, single dose; details: mouse, plasma, wild-type mice, 10 mg/kg single dose
Experimental: (§5) The in vivo bioavailability, plasma half-life, Cmax, and area under the curve (AUC) were determined after administration of single 10 mg/kg doses of remodilins 39 and 83 to mice (Table 1). Selected tissue concentrations of remodilins 39 and 83 after single oral doses of 10 or 50 mg/kg (FIG. 6). The PK properties of these remodilins differ substantially.

[10] = Lipophilicity and dissolution in vehicles; assay type: physicochemical
Experimental: In the experiments corresponding to FIG. 7, remodilin 83 was dissolved in 20% Solutol in PBS.

[11] = tested on: MDA-MB-231 cells; assay: Scratch wound healing migration assay; assay type: cell-based, human; details: dose-dependent; 1, 3, 10 uM; n=8 wells/condition
Experimental: Mean+SD shown; n=8 wells/condition. P<0.0001 for 1, 3, & 10 uM remodilin 39 vs DMSO (control) by 2-way ANOVA/Dunnett's.
as §4

[12] = tested on: HIF1α; assay: Hypoxia-induced HIF1α accumulation in HEK293T cells (Western blot); assay type: cell-based; details: 6 hrs steady hypoxia; 3 or 10 μM
From the text: FIG. 14A-14B Remodilins' effects on hypoxia-induced accumulation of HIF1α. […] FIG. 14B HIF1α was absent in cells ex-posed to 6 hrs normoxia (N).
OSA is a chronic, morbid disease affecting about 10% of the adult population, in which frequent episodes of upper airway collapse obstruct inspiratory airflow and cause IH. These episodes of IH disrupt sleep but perhaps more importantly accelerate multiple cardiometabolic abnormalities, including systemic hypertension, cardiovascular disease, stroke, and abnormal glucose metabolism. Therefore, remodilins were examined for their ability on inhibit hypoxia-induced accumulation of HIF1α, a transcription factor that mediates many of the adverse responses to IH.

[13] = Tissue and plasma concentrations after single oral doses; assay type: in vivo; details: mice; single oral doses of 10 or 50 mg/kg (FIG. 6)
Experimental: FIG. 6 Tissue and plasma remodilin concentrations after single oral doses (filled circles 50 mg/kg; open circles-10 mg/kg). […] The greater oral bioavailability, longer half-life, and inter-tissue variation of remodilin 83 concentration are readily evident. Mean+SEM shown; n=3/condition.
as §5
PK was re-evaluated after 14 days of intraperitoneal (IP) or oral BID dosing. […] Plasma levels after single or 15 consecutive once-daily IP 10 mg/kg doses of remodilin 39 were examined (FIG. 8). The plasma concentration of 10 μM remodilin 39 corresponds to 5314 ng/mL.

[14] = tested on: human primary Schlemm's canal endothelial cells; assay: Contractile force of SC cells (Fourier-Transform Traction Microscopy); assay type: cell-based; details: vs DMSO; for elevation of cellular contractile force in TGFβ2 treated SC cells: TGFβ2 2.5 ng/mL 48 hr, dose-dependent; for cellular contractile force of SC cells, remodilin alone: treatment alone, 1 hr, dose dependent
Experimental: (§6) FIGS. 11A-11C Anti-fibrogenic effects of remodilins 50, 73, and 82 in human primary Schlemm's canal endothelial cells.
Remodilins' effect on elevation of SC cell contraction by TGF-β2 treatment was then examined. Cellular contractile force was measured using Fourier-Transform Traction Microscopy. Compared to no treatment, TGF-β2 treatment elevated average cellular contractile force by almost seven-fold. […] Then, the effect of remodilin treatment alone on cellular contractile force in SC cells was investigated. After 1 hr treatment, compared to DMSO, remodilins reduced cellular contractile force in a dose dependent manner (FIG. 11C). […] Taken together, the anti-fibrogenic effects and relaxation effects of remodilins could be beneficial to reduce outflow resistance potentially through promoting pore formation in SC inner wall.

[15] = tested on: human primary Schlemm's canal endothelial cells; assay: Fibronectin expression in TGF-β2 treated SC cells; assay type: cell-based; details: TGFβ2 2.5 ng/mL 48 hr; remodilin 3 or 10 μM; vs DMSO
Experimental: as §6
Remodilins' effect on SC cells, another key cell type in conventional outflow pathway, was examined. As described above, TGF-β2 also promotes pro-fibrogenic activation in SC cells and such activation accompanies elevation of cell contraction. Protein expression in TGF-β2 treated SC cells was examined first. SC cells from two different donors were cultured in 6-well plates and serum-deprived for 1 day before drug treatment. Cells were treated with Remodilin [3 or 10 μM] or DMSO together with human recombinant TGF-2 [2.5 ng/ml] for 48 hours.

[16] = tested on: TM cells; assay: Contractile force of TM cells (Fourier-Transform Traction Microscopy); assay type: cell-based, human; details: treatment alone, 1 hr, vs DMSO; dose dependent
Experimental: as §1

SMILES	α-SMA expression induced by TGF-β2 in TM cells [1]	TGFβ-stimulated transformation of human lung-derived fibroblasts to myofibroblast phenotype (ACTA2 or FN1 protein expression) [2]	elevation of cellular contractile force in TGFβ2 treated SC cells [14]	cellular contractile force of SC cells, remodilin alone [14]	fibronectin expression in TGFβ2 treated SC cells [15]	average contractile force of TM cells (force response ratio) [16]	also measured
CCCCC[C@H](O)/C=C/[C@H]1[C@H](O)CC(=O)[C@@H]1C/C=C\CCCC(=O)O [PGE2, prostaglandin E2, reference compound]	inhibited α-SMA expression	–	–	–	–	–	–
CCN(CC)S(=O)(=O)c1ccc(NC(=O)c2ccc(OC)c(I)c2)cc1 [Remodilin 4, N-(4-(N,N-diethylsulfamoyl)phenyl)-3-iodo-4-methoxybenzamide]	–	blunt TGFβ-stimulated transformation	–	–	–	–	TGFβ-stimulated Smad-dependent transcription [3]: unchanged; TGFβ-stimulated SRF-dependent transcription [4]: inhibited
COc1ccc(C(=O)Nc2ccc(S(=O)(=O)N3CCCCC3C)cc2)cc1I (stereo not drawn) [Remodilin 39, 3-Iodo-4-methoxy-N-(4-((2-methylpiperidin-1-yl)sulfonyl)phenyl)benzamide]	–	blunt TGFβ-stimulated transformation	–	–	–	–	invasion of MDA-MB-231 cells from spheroids into collagen gels [5]: inhibited invasion; 10% FBS-directed invasion migration of BM1 cells through Matrigel-coated transwell membrane [6]: inhibited; HIF1α accumulation in HEK293 cells exposed to hypoxia [7]: blunted HIF1α accumulation substantially; growth inhibition or cytotoxicity by Alamar blue assay [8]: Neither remodilin is growth-inhibitory or cytotoxic; bioavailability ([9]; po): 4%; AUC [9]: 224 ng·h/mL; Cmax [9]: 240 nM; half-life [9]: 1.3 h; lipophilicity / lipid solubility [10]: highly lipid soluble; migration of confluent MDA-MB-231 cells into circular scratch wound [11]: inhibited migration; HIF1α accumulation in HEK293T cells exposed to hypoxia [12]: inhibit the accumulation of HIF1α; tissue distribution [13]: distributed much more uniformly across tissues
O=C(Nc1ccc(S(=O)(=O)N2CCCC2)cc1)c1ccc(Br)c(I)c1 [Remodilin 50, 4-Bromo-3-iodo-N-(4-(pyrrolidin-1-ylsulfonyl)phenyl)benzamide]	inhibited alpha smooth muscle actin expression	blunt TGFβ-stimulated transformation	inhibited the elevation of cellular contractile force	induced relaxation in SC cells	inhibited fibronectin expression	induced relaxation in TM cells	–
CC1CCCCN1S(=O)(=O)c1ccc(NC(=O)c2ccc(Br)c(I)c2)cc1 (stereo not drawn) [Remodilin 73, 4-Bromo-3-iodo-N-(4-((2-methylpiperidin-1-yl)sulfonyl)phenyl)benzamide]	–	–	inhibited the elevation of cellular contractile force	induced relaxation in SC cells	inhibited fibronectin expression	–	–
CCC1CCCCN1S(=O)(=O)c1ccc(NC(=O)c2ccc(OC)c(I)c2)cc1 (stereo not drawn) [Remodilin 82, N-(4-((2-ethylpiperidin-1-yl)sulfonyl)phenyl)-3-iodo-4-methoxybenzamide]	–	–	inhibited the elevation of cellular contractile force	induced relaxation in SC cells	inhibited fibronectin expression	induced relaxation in TM cells	–
